We go through four molecules from publication PMC6390093, “Structural basis of small RNA hydrolysis by oligoribonuclease (CpsORN) from Colwellia psychrerythraea strain 34H” (Scientific Reports, 2019).

The target of data set [1] is T1, CpsORN (Colwellia psychrerythraea, UniProt Q47VZ4).
T1 construct: gene orn
As to the kind of experiment: X-ray crystal structure, […] Å. The class given is binding. Particulars: 5 mM uridine added, 1 mM MnCl2; active site with Mn2+; two molecules per site; text describes a phosphate on U2.

In data set [2] the target is T1, CpsORN. As to the kind of experiment: spectrophotometric release of p-nitrophenolate at […] nm. The class given is biochemical. Particulars: 3 mM substrate, 1 mM MnCl2, 50 mM Tris pH 8.0, 150 mM NaCl, 25 °C, 400 nM protein.
Data set [3] concerns the target T2, CpsORN (Colwellia psychrerythraea, UniProt Q47VZ4, D163A).
T2 construct: gene orn
As to the kind of experiment: X-ray crystal structure, […] Å. The class given is binding. The settings on record: 5 mM pNP-TMP, 1 mM MnCl2 added, no metal seen in active site; two molecules per site; inactive mutant.

Data set [4] deals with the molecule itself. As to the kind of experiment: AUC; sedimentation velocity, 0.5 mg/mL CpsORN in 20 mM Tris-HCl pH 8.0, 150 mM NaCl, 45,000 rpm, monitored at 280 nm, SEDFIT.
Data set [5] concerns the molecule itself. As to the kind of experiment: crystal structure; four crystal forms (unliganded, pNP-TMP-bound, linked uridine-bound, separated uridine-bound), sitting- or hanging-drop vapour diffusion at 293 K.

Where a chain is given by its changes, count along the chain named. In names and notes the source's numbering stands.

T2 sequence (Q47VZ4 whole entry D163A): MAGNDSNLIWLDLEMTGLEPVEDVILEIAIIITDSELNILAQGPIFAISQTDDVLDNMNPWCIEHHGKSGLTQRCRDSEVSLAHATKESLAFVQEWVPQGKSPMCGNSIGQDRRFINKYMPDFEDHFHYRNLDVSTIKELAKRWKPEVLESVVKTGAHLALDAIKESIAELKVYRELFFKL

In the case of `O=c1ccn([C@@H]2O[C@H](COP(=O)(O)O)[C@@H](O)[C@H]2O)c(=O)[nH]1`, the “X-ray crystal structure, 2.2 Å” value at CpsORN [1] is reported as 6A4F (separated uridine-bound CpsORN).

Consider `Cc1cn([C@H]2C[C@H](O)[C@@H](COP(=O)(O)Oc3ccc([N+](=O)[O-])cc3)O2)c(=O)[nH]c1=O` [pNP-TMP], for which, on CpsORN [2], the “spectrophotometric release of p-nitrophenolate at 420 nm” value is reported as “CpsORN showed hydrolysis activity toward pNP-TMP in the presence of manganese or magnesium”. The “X-ray crystal structure, 2.2 Å” value at CpsORN [3] is reported as “The pNP-TMP complexed D163A mutant CpsORN crystal contains two pNP-TMP molecules in the active site”.

B1: oligoribonuclease from Colwellia psychrerythraea strain 34H (CpsORN), wild-type (enzyme, UniProt Q47VZ4 1-181, looked up)
chain: MAGNDSNLIWLDLEMTGLEPVEDVILEIAIIITDSELNILAQGPIFAISQTDDVLDNMNPWCIEHHGKSGLTQRCRDSEVSLAHATKESLAFVQEWVPQGKSPMCGNSIGQDRRFINKYMPDFEDHFHYRNLDVSTIKELAKRWKPEVLESVVKTGAHLALDDIKESIAELKVYRELFFKL
notes: oligoribonuclease (CpsORN) of Colwellia psychrerythraea strain 34H, full-length gene orn, residues 1-181; pET-28a construct with a thrombin site after the His tag; also called unliganded CpsORN; source: E. coli BL21(DE3), purified (Ni-NTA, thrombin cleavage, Superdex 200); not shown: His6, N-terminal, cleaved
Consider B1, for which the “stoichiometry N” value in data set [4] was 2.

B2: CpsORN D163A inactive mutant (enzyme, Colwellia psychrerythraea strain 34H, UniProt Q47VZ4 1-181, looked up)
chain: B1 chain with D163A
notes: oligoribonuclease (CpsORN) of Colwellia psychrerythraea strain 34H, full-length gene orn with Asp163 replaced by alanine; Made from the wild-type plasmid and purified by the same procedure as the wild type; also called D163A mutant; source: E. coli BL21(DE3), purified (Ni-NTA, thrombin cleavage, Superdex 200); not shown: His6, N-terminal, cleaved
With B2, the binding result in data set [5] was “binds”.
